Laboratory results taken from patent US11267809B2, “BAF complex modulating compounds and methods of using the same” (THE BOARD OF TRUSTEES OF THE LELAND STANFORD JUNIOR …, priority 2017, dated 2022).

Key:
Cal-51 cells = test: Synergy viability assay, Cal-51; type: cell-based, human; settings: with VE-821 (1.25-20 uM each)
Source text: In ARID1A-deficient tumors, ATR inhibition is thought to trigger premature mitotic entry and chromosome instability that cannot be resolved, resulting in mitotic catastrophe^27. […] We sought to assess whether generic BAF inhibition might sensitize a host of cancers to ATR inhibition. We tested the efficacy of BAFi and ATRi on nine additional human cancer cell lines including seven Breast cancer cell lines (HCC1143, HCC1954, HCC1187, MDAMB-468, MDA-MB-436, Cal-51, MCF-7) and two renal clear cell carcinoma cell lines (A-704, and ACHN). Cal-51 and MCF-7 are both considered aggressive, highly mutated breast cancer cell lines with numerous COSMIC Census gene mutations (FIG. 10). HCC1143 and MDA-MB-468 are sporadic basal-likecancers, HCC1187 is a triple-negative breast cancer, and HCC1954 and MDA-MB-436 are BRCA1 mutant breast cancers which harbor single driver mutations. To assess synergy, each cell line was treated with 5 doses of VE-821 (1.25 uM-20 uM) and 5 doses of Baficillin1 (1.25 uM-20 uM), both independently and with all possible combinations. Like HCT-116 cells, Baficillin1 sensitized MCF-7 and Cal-51 cells lines to treatment with VE-821 (FIG. 6a).
Viability assays were performed in 384-well plates. Cells were plated at 500 cells/well. […] After 5 days, cellular viability was measured using CellTitre blue, as described by the manufacturer.

Bmi1 expression = test: Screen for increased expression of Bmi1 (BAF target) in mESCs; type: cell-based, mouse; settings: mESC screen
Source text: This synthetic lethal interaction has been attributed to the increased dependency of ARID1A-deficient cells on the ATR-mediated G2/M decatenation checkpoint following loss of ARID1A-mediated interactions of the BAF complex with TOP2A^7,27. Utilizing the knowledge that one of the BAF complex's diverse and essential functions involves repression of specific genes in embryonic stem cells^28, we developed a screening strategy to identify compounds that upregulate target genes repressed by the embryonic BAF complex (esBAF) in mESCs including Bmil, Ringl, and Fgf4 (FIG. 1b)^16,29. Given that the loss of ARID1A (a functionally critical, mechanistically elusive, and frequently mutated subunit of the BAF complex) sensitizes cancer cells to inhibition of the ATR kinase, we sought to identify whether our putative esBAF inhibitors (FIG. 1c) might phenocopy the loss of ARID1A in cancer cells and thereby synergize with ATR inhibitors.
We recently completed a large-scale screen to identify small molecules that result in increased expression of Bmi1, a known genetic target of BAF whose expression is increased about 6- to 12-fold upon deletion of the SMARCA4 ATPase subunit of the BAF complex^29. […]

mESCs = test: Toxicity in mouse embryonic stem cells (cell cycle arrest); type: cell-based
Procedure: From our initial Bmi1 screen, we chose 8 representative compounds to compare to the lead candidate which were either commercially available, or comprised of the same oxadiazacyclodecone 12-member macrocyclic stereoisomer backbone as Baficillin1. […] To examine a structure-activity-relationship of the compounds, HCT116 cells were then treated with increasing doses of VE-821 (1 uM-30 uM) and increasing doses of the putative inhibitors (1 uM-30 uM), both independently and with all possible combinations followed by quantification of synergy (FIG. 4c-h).
FIG. 4: Structure Activity Relationship of Putative BAF Inhibitors. […]
For hour-by-hour analysis, cells were collected, rinsed with PBS, and vortexed while adding 1mL ice cold 70% ethanol. […] Individual cells were gated based on forward and side scatter, auto fluorescent cells were omitted, and remaining cells were then analyzed for propidium iodide levels. To determine the percent of cells in each phase, DNA content histograms histograms were analyzed using R-package “mixtools” EM algorithm for mixtures of univariate normals. The areas of each mixed normal distribution were calculated to represent the total number of cells in each phase of the cell cycle. […] ESCs were incubated with BrdU for 1 h and the percent of cells in G2/M, stained with 7-AAD and analyzed on a BD FACScan.

For CO[C@H]1CN(C)C(=O)c2cc(NC(=O)NC(C)C)ccc2OC[C@H](C)N(Cc2ccc(-c3ccccn3)cc2)C[C@@H]1C [Baficillin1], the “combination index (CI Cal-51)” value (Cal-51 cells) was 0.57±0.09, the “activation of Bmi1 and other BAF targets” value (Bmi1 expression) was “robust activation” and the “toxicity in mESCs” value (mESCs) was “largely non-toxic”.
